# Data from paper PMC12111156, “Nitazoxanide Analogs: Synthesis, In Vitro Giardicidal Activity, and Effects on Giardia lamblia Metabolic Gene Expression” (International Journal of Molecular Sciences, 2025).
# How the values were obtained:
# [1] = system: G6PD::6PGL enzyme of G. lamblia; conditions: cited from earlier work
# Caco-2 and HT-29 cells = assay: Cytotoxicity, XTT viability assay, stated for both cell lines; type: cell-based, human; conditions: 125 µM, 48 h
# Procedure: The suspension was added to a 96-well plate. […] Cell viability was determined using the following steps.
# HT-29 cells = assay: Cytotoxicity, XTT viability assay, HT-29; conditions: CC50 HT-29 / IC50 trophozoite ATCC strain 30957
# Procedure: (§1) The cytotoxicity assay was performed to evaluate the effect of the selected compounds on human cells. Colon cells were used because they are cell lines like those present in the microenvironment where G. lamblia colonizes, which is the small intestine of the host. The assay was performed using the human cell lines Caco-2 (ATCC HTB-37) and HT-29 (ATCC […]). Cell viability was determined using the Cell Proliferation Kit II (XTT, St. Louis, MO, EE. UU.). A cell suspension of 2 × 10^3 cells/mL was prepared in Dulbecco’s modified Eagle’s medium (DMEM) supplemented with 10% inactivated fetal bovine serum and an antibiotic (1% penicillin/streptomycin, 5000 U/mL, in a volume of 100 µL). The suspension was added to a 96-well plate. The plates were incubated for 24 h at 37 °C in a 5% CO2 atmosphere. […] The cells were incubated for 48 h at 37 °C in a 5% CO2 atmosphere. Cell viability was determined using the following steps. The medium in each well was replaced with 100 µL of fresh medium, and 50 µL of XTT labeling mix was added per well. The reaction was incubated for four hours at 37 °C and 5% CO2. After incubation, the absorbance of the samples on the plate was measured at 450 nm. Each compound was assayed in triplicate in three independent experiments. CC50 values (μM) were determined using the nonlinear regression function of GraphPad Prism version 8 for Windows.
# [2] = Cytotoxicity, XTT viability assay, HT-29; conditions: human, HT-29 cells, CC50 HT-29, 48 h, XTT
# Procedure: as §1
# G. lamblia trophozoites = assay: Cell damage by transmission electron microscopy; type: cell-based, Giardia lamblia; conditions: IC50 concentration, 24 h
# Procedure: The trophozoites were incubated for 24 h at 37 °C and then collected by cooling them in an ice bath for 10 min and centrifuging at 2000 rpm for 7 min. The samples were sent for preparation and observation at the Instituto de Fisiología Celular, UNAM. The analysis was performed using a JEOL-JEM-1200 transmission electron microscope (JEOL LTD, Tokyo, Japan) equipped with a GATAN CCD camera at the Imaging Unit of the Institute of Cellular Physiology, UNAM.
# [3] = Cytotoxicity, XTT viability assay, Caco-2; conditions: human
# Procedure: as §1
# [4] = system: G. lamblia strain ATCC 30957; assay: Viability of Giardia lamblia trophozoite culture (trypan blue count); type: cell-based
# Procedure: Viability analysis was performed on G. lamblia strain ATCC 30957 grown in TYI-S-33 medium supplemented with 10% fetal bovine serum (FBS) and an antibiotic. Pre-culture was performed in 16 × 150 mm borosilicate tubes with a medium inoculated with 2 × 10^5 trophozoites and incubated at 37 °C for 48 h. For the recovery of the trophozoites, the vial was incubated in ice for 8 min and centrifuged for 6 min at 2000 rpm. The concentrated trophozoites were suspended in 1 mL of phosphate-buffered saline (PBS), and the number of trophozoites was counted by placing a 1:1 volume ratio of cell culture and trypan blue dye (4 g/L); then, a homogeneous drop of the mixture was taken and placed in the Neubauer chamber, and the total cells were counted.
# The curves were plotted for concentrations of 0–50 µM of each compound. The assay was performed by placing 1.5 × 10^5 cells in 1.5 mL microcentrifuge tubes with a supplemented medium and different concentrations of each compound (0–50 µM). The negative control was performed under the same conditions without a compound, and the drugs NTZ and MTZ were used as positive controls. The samples were incubated for 48 h at 37 °C. At the end of the incubation, the cell viability count was performed using the trypan blue technique. The viability calculation was performed following the formula nv/(nv + nm), where nv represents the live cells and nm represents the dead cells; the viability value obtained was expressed as a percentage. The IC50 value of each compound was determined using the IC50 Calculator software (https://www.aatbio.com/tools/ic50-calculator).
# [5] = system: G. lamblia strain resistant to nitazoxanide; assay: Giardicidal activity in nitazoxanide-resistant strain (trypan blue count); type: cell-based; conditions: Giardia duodenalis, 48 h, read-out: IC50 G. lamblia (NTZ Resistant)
# Procedure: A pre-culture at confluence was used as a starting point, and a concentration–response curve was plotted using an initial compound concentration of 25 μM in a final volume of 1.5 mL of TYI-S-33 medium, followed by serial dilutions of the compound. Each treatment was inoculated with 1.5 × 10^5 trophozoites and incubated for 48 h at 37 °C. At the end of the incubation, the number of trophozoites was determined using the trypan blue assay and by counting in a Neubauer chamber. The viability percentage at each compound concentration was calculated using the negative control as a reference.
compound,measurement,setting,value
"CCCCC(=O)Nc1ncc([N+](=O)[O-])s1 [FLP-2, N-(5-Nitro-1,3-thiazol-2-yl)pentanamide]",Inhibition of the G6PD::6PGL enzyme (in words),[1],inhibitors of the G6PD enzyme
same,Decrease of cell viability,Caco-2 and HT-29 cells,up to 20%
same,Selectivity index (CC50/IC50) HT-29,HT-29 cells,531
same,CC50 at 48 h,[2],1910 µM
same,Ultrastructural effect on trophozoites (TEM),G. lamblia trophozoites,significant morphological alterations
same,selectivity ratio at 48 h,[3]; Caco-2,884
same,CC50 at 48 h,"[3]; Caco-2, CC50 Caco-2, 48 h, XTT",3180 µM
same,Inhibition of growth of G. lamblia parasite culture,[4]; concentration not given,more than 98%
same,Relative potency compared with NTZ,"[4]; ratio of IC50 values, ATCC strain",1.2 times
same,IC50,[5],0.37 µM
